Results taken from patent US20070072181A1 (priority 2003, published 2007).
Like-named read-outs stand apart in the source and are kept apart here.

Test system: VSV
Type: cell-based

## Cc1ccc(=O)n(-c2ccccc2)c1 [PD, 5-methyl-1-phenyl-2-(1H)-pyridone]
0.001 ng interferon + 3 μg pirfenidone (PD), HeLa, VSV
  Mean (Means for Oneway Anova; antiviral effect): 0.6002
0.001 ng interferon + 30 μg pirfenidone (PD), HeLa, VSV
  Mean (Means for Oneway Anova; antiviral effect): 0.543
0.001 ng interferon + 300 μg pirfenidone (PD), HeLa, VSV
  Mean (Means for Oneway Anova; antiviral effect): 0.3705
0.0049 ng interferon + 3 μg pirfenidone (PD), HeLa, VSV
  Mean (Means for Oneway Anova; antiviral effect): 0.407
0.0049 ng interferon + 30 μg pirfenidone (PD), HeLa, VSV
  Mean (Means for Oneway Anova; antiviral effect): 0.3033
0.0049 ng interferon + 300 μg pirfenidone (PD), HeLa, VSV
  Mean (Means for Oneway Anova; antiviral effect): 0.1915
0.019 ng interferon + 3 μg pirfenidone (PD), HeLa, VSV
  Mean (Means for Oneway Anova; antiviral effect): 0.519
0.019 ng interferon + 30 μg pirfenidone (PD), HeLa, VSV
  Mean (Means for Oneway Anova; antiviral effect): 0.284
0.019 ng interferon + 300 μg pirfenidone (PD), HeLa, VSV
  Mean (Means for Oneway Anova; antiviral effect): 0.1785
0.076 ng interferon + 3 μg pirfenidone (PD), HeLa, VSV
  Mean (Means for Oneway Anova; antiviral effect): 0.68
0.076 ng interferon + 30 μg pirfenidone (PD), HeLa, VSV
  Mean (Means for Oneway Anova; antiviral effect): 0.4505
0.076 ng interferon + 300 μg pirfenidone (PD), HeLa, VSV
  Mean (Means for Oneway Anova; antiviral effect): 0.1938
0.3 ng interferon + 3 μg pirfenidone (PD), HeLa, VSV
  Mean (Means for Oneway Anova; antiviral effect): 0.5563
0.3 ng interferon + 30 μg pirfenidone (PD), HeLa, VSV
  Mean (Means for Oneway Anova; antiviral effect): 0.4298
0.3 ng interferon + 300 μg pirfenidone (PD), HeLa, VSV
  Mean (Means for Oneway Anova; antiviral effect): 0.1948
1.2 ng interferon + 3 μg pirfenidone (PD), HeLa, VSV
  Mean (Means for Oneway Anova; antiviral effect): 0.306
1.2 ng interferon + 30 μg pirfenidone (PD), HeLa, VSV
  Mean (Means for Oneway Anova; antiviral effect): 0.4248
1.2 ng interferon + 300 μg pirfenidone (PD), HeLa, VSV
  Mean (Means for Oneway Anova; antiviral effect): 0.1872
4.8 ng interferon + 3 μg pirfenidone (PD), HeLa, VSV
  Mean (Means for Oneway Anova; antiviral effect): 0.245
4.8 ng interferon + 30 μg pirfenidone (PD), HeLa, VSV
  Mean (Means for Oneway Anova; antiviral effect): 0.3757
4.8 ng interferon + 300 μg pirfenidone (PD), HeLa, VSV
  Mean (Means for Oneway Anova; antiviral effect): 0.325
19 ng interferon + 3 μg pirfenidone (PD), HeLa, VSV
  Mean (Means for Oneway Anova; antiviral effect): 0.979
19 ng interferon + 30 μg pirfenidone (PD), HeLa, VSV
  Mean (Means for Oneway Anova; antiviral effect): 0.2968
19 ng interferon + 300 μg pirfenidone (PD), HeLa, VSV
  Mean (Means for Oneway Anova; antiviral effect): 0.4105
Low doses of Pirfenidone with interferon, HeLa, VSV
  effect on the antiviral effects of interferon: enhance the antiviral effects of interferon
Low doses of pirfenidone in combination therapy with IFN-α
  effect on viral growth in combination with IFN-α: synergistic effect on reducing viral growth
